Measurements published in US20100120738A1, “ANTI-APOPTOTIC BENZODIAZEPINE RECEPTOR LIGAND INHIBITORS” (priority 2006, published 2010).
Read-outs that look alike come from different tables or passages of the source.

Key:
[1] = Superoxide dismutase (SOD) activity; type: biochemical
PC12 cells = assay: Protection against STS-induced apoptosis in PC12 cells (XTT viability assay); type: cell-based, rat
Experimental: Rat pheochromocytoma (PC12) cells were cultured in collagen-coated 96-well plates according to directions provided by the American Type Culture Collection. Staurosporine was added at various concentrations sufficient to induce apoptosis. Test compounds were added together with the staurosporine. Cells were incubated overnight at 37° C., 5% CO2. After 18-24 hours, test media was removed and cell viability was determined using the XTT viability assay described by Baker et al., J. Pharmacol. Exp, Therapeutics 284, 215-221, 1998, the contents of which are incorporated herein by reference.

[2] = test system: Bovine capillary endothelial cells; assay: Protection against radiation-induced apoptosis (DAPI apoptotic index); type: cell-based; settings: for concentration providing protection from the apoptotic effects of ionizing radiation: DAPI staining, apoptotic index, 6 h
Experimental: Bovine capillary endothelial cells were cultured on eight chamber Labtek slides and exposed to ionizing radiation (20 Gy) for 6 hours. After this time, cells were either left untreated or treated with compound at the concentration indicated on the x-axis. Cells were then fixed in methanol and stained with 5 μg/ml DAPI and DNA was visualized using a Nikon epifluorescence microscope, and apoptosis scored and expressed as an apoptotic index according to the percentage of apoptotic cells in a field of 100 cells. Open bars indicate apoptotic index following irradiation. Hatched bars indicate apoptotic index for control cells not receiving a dose of ionizing radiation.
(§1) Bovine capillary endothelial cells were cultured on eight-chamber Labtek slides and exposed to ionizing radiation (20 Gy), which was calibrated using an X-ray exposure meter. […] In control experiments, cells either received no ionizing radiation (sham) or no compound. After 6 h incubation, the cells were fixed in methanol and stained with 5 μg/ml 4,6-diamidino-2-phenylindole (DAPI). DNA was visualized using a Nikon epifluorescence microscope, and apoptosis was scored and expressed as an apoptotic index (% apoptotic cells in a field of 100).

[3] = test system: Bovine capillary endothelial cells; assay: Cytotoxicity/necrosis of non-irradiated cells (LDH release, field number); type: cell-based
Experimental: as §1, with “100). […] Field number was also calculated for all other compounds tested as a control (results not shown).” for “100).”
To determine cytotoxicity of the compounds under these conditions, duplicate samples of the cells receiving a dose of compound at each concentration tested in the absence of a dose of ionizing radiation were assayed for release of LDH into the culture medium.

[4] = test system: cultured mesencephalic tissue slices; assay: MPP+ induced neurodegeneration in cultured mesencephalic tissue slices (LDH release); type: cell-based, rat; settings: 20 μM MPP+; for prevention of cytotoxicity induced by MPP+: compound 100 nM, 1.0 μM, 10 μM, FIG. 17
Experimental: FIG. 17 is a graphical representation showing the effects of exemplary low molecular weight metalloporphyrin compounds of the present invention on MPP+ induced neurodegeneration in cultured mesencephalic tissue slices. Mesencephalic tissue slices were prepared from PND 3-5 rats and maintained in culture for 2 weeks. The tissue slices were incubated with a porphyrin compound as indicated on the x-axis for 6 hours before adding 20 μM MPP+ to induce neuronal apoptosis. Concentrations of each porphyrin compound tested were 100 nM ? 1.0 μM ? and 10 μM ? Following a further incubation for 48 hours, the slices were collected and the level of lactate dehydrogenase (LDH) released into the medium was determined.

[5] = Stability in USP simulated gastric fluid (SGF); type: in vitro ADME; settings: 37° C., pH approx. 1.2
Source text: Aliquots of SGF were withdrawn and intact compound quantitated by HPLC-UV.

[6] = Lipophilicity by octanol partitioning; type: physicochemical; settings: for Log10 P value / P value (octanol partitioning coefficient): octanol-water
Experimental: To indicate the likelihood that the compounds will cross lipid membranes and be absorbed once administered by oral means, their lipophilicities were determined by octanol partitioning. […] Quantitation was performed by HPLC-UV.

[7] = Oral bioavailability in vivo, plasma levels by LC-MS/MS after intragastric gavage; set-up: species or system rat; settings: intragastric gavage, 4 mg/kg EUK-418 or 2 mg/kg EUK-423
Experimental: FIG. 18 is a graphical representation showing the bioavailability in vivo for the compounds {[{(Porphine-5,15-diyl)bis[cyclopropyl-diyl]}](2-)-N^21,N^22,N^23,N^24} manganese(III) acetate (EUK-418) and {[{(Porphine-5,15-diyl)bis[benzyl-diyl]}](2-)-N^21,N^22,N^23,N^24} manganese(III) acetate (EUK-423) in rats. Fasted and fed Sprague-Dawley rats were dosed by intragastric gavage with either 4 mg/kg EUK-418 or 2 mg/kg EUK-423. At the times indicated on the x-axis, plasma was obtained from the animals and the concentrations of compounds determined by LC-MS/MS.
Fasted and fed Sprague-Dawley rats were dosed by intragastric gavage with either 4 mg/kg EUK-418 or 2 mg/kg EUK-423. At time points up to 7 hr post-administration, animals were sacrificed, their blood collected over heparin, plasma samples prepared by centrifugation, and plasma levels of the compounds were determined by LC-MS/MS.

[8] = target: mitochondrial benzodiazepine receptor (mBzR) (Homo sapiens, UniProt P30536); assay: Inhibition of tritiated PK11195 binding to the receptor; settings: read-out: Ki against the binding of PK11195
Chain of mitochondrial benzodiazepine receptor (mBzR) (P30536 whole entry, species assumed): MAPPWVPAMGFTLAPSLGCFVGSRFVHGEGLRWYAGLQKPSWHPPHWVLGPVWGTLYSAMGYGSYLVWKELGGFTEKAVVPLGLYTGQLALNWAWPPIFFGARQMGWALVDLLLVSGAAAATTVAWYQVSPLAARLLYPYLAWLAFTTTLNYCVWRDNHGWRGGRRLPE
Experimental: Standard methods e.g., competition assays, are used to determine ge an inhibition, prevention or delay in binding of a ligand of a mitochondrial benzodiazepine receptor by a low molecular weight porphyrin derivative compound of the invention. As exemplified herein, labelled PK11195 compound is contacted with the receptor in the presence of different concentrations of a compound being tested and binding of the labelled PK11195 compound is determined. […] Preferably, the concentration of the compound being tested that inhibits binding of the ligand by 50% (i.e., […]) is determined.
FIG. 15 is a graphical representation showing the ability of the compounds {[{(Porphine-5,15-diyl)bis[cyclopropyl-diyl]}](2-)-N^21,N^22,N^23,N^24} manganese (III) acetate (EUK-418) and (5,10,15,20-Tetra ethylporphyrinato) manganese (III) acetate (EUK-425) to inhibit binding of tritiated PK11195 to the mitochondrial benzodiazepine receptor (mBzR). The Ki value for each compound is indicated.
FIG. 16 is a tabular representation showing a series of low molecular weight metalloporphyrin compounds designated EUK-418, EUK-423, EUK-424, EUK-425 and EUK-426, that inhibit ligand binding to the mitochondrial benzodiazepine receptor (mBzR) with moderate affinity, as determined by the Ki value (last column) for inhibition of tritiated PK11195, binding to the receptor. […]

[9] = Plasma recovery after oral dose (another study); type: in vivo; settings: 3.5 mg/kg dose administered orally; not shown
[10] = cuvette format, read-out: Cuvette IC50
[11] = microplate format, read-out: Microplate IC50
[12] = FIG. 12, at up to about 5 μM concentration, toxicity blunts protection at high concentrations
[13] = FIG. 12, among compounds tested

Compound	IC50 [1, 10] [µM]	IC50 [1, 11] [µM]	effect on staurosporine-induced apoptosis of PC12 cells (PC12 cells; [12])	prevention of cytotoxicity induced by MPP+ [4]	Percentage remaining after 90 mins in SGF [5] [%]	Log10 P value [6]	P value (octanol partitioning coefficient) [6]	also measured
CC(=O)O.CCOc1cccc(C=NCCN=Cc2cccc(OCC)c2O)c1O.[Mn] [EUK-189, reference compound]	0.55	0.824						
C1=Cc2nc1cc1ccc([n-]1)c(-c1ccccc1)c1nc(cc3ccc([n-]3)c2-c2ccccc2)C=C1.CC(=O)[O-].[Mn+3] [EUK-423, {[{(Porphine-5,15-diyl)bis[benzyl-diyl]}](2-)-N^21,N^22,N^23,N^24} manganese(III) acetate]	17.3	4.1	effectively reduce apoptosis	prevent cytotoxicity	91.2	0.907 ± 0.002	8.07 ± 0.10	effect on staurosporine-induced apoptosis of PC12 cells (PC12 cells; FIG. 11): effectively reduce apoptosis; concentration providing protection from the apoptotic effects of ionizing radiation ([2]; 20 Gy): 3 to 10 µM; protection of cells exposed to ionizing radiation ([2]; about 3-10 μM compound, 20 Gy, p<0.006): approximately 87%; protection of cells exposed to ionizing radiation ([2]; low doses, FIG. 13 and FIG. 14): protected; necrosis at the protective concentration ([3]; 3 μM EUK-418, about 3-10 μM EUK-423): no detectable necrosis; concentration causing significant increase in field number for control cells, indicating cytotoxicity ([3]; control cells without ionizing radiation): ≥ 30 µM; plasma time course [7]: increased in plasma during the first four hour period; found in plasma / bioavailable after oral administration ([7]; fasted and fed rats): bioavailable in vivo
CC(=O)[O-].CC(C)c1c2nc(c(C(C)C)c3ccc([n-]3)c(C(C)C)c3nc(c(C(C)C)c4ccc1[n-]4)C=C3)C=C2.[Mn+3] [EUK-424, (5,10,15,20-Tetraisopropylporphyrinato)manganese (III) acetate]				prevent cytotoxicity				
CC(=O)[O-].CCc1c2nc(c(CC)c3ccc([n-]3)c(CC)c3nc(c(CC)c4ccc1[n-]4)C=C3)C=C2.[Mn+3] [EUK-425, (5,10,15,20-Tetraethylporphyrinato)manganese (III) acetate]	32.5	0.439	effectively reduce apoptosis	prevent cytotoxicity	97.0	0.932 ± 0.006	8.56 ± 0.35	necrosis at the doses tested ([3]; range of 0.5 μM to 100 μM, data therefore expressed as field number): necrosis was observed; Ki [8]: 0.027 µM; EC50 ([4]; LDH release, read-out: EC50 in MPP+ slice model): < 0.1 µM
CC(=O)[O-].COc1ccc(-c2c3nc(cc4ccc([n-]4)c(-c4ccc(OC)cc4)c4nc(cc5ccc2[n-]5)C=C4)C=C3)cc1.[Mn+3] [EUK-450, {[{(Porphine-5,15-diyl)bis[benzene-1,4 diyl (4-methyl-oxy)]}](2-)-N^21,N^22,N^23,N^24} manganese(III) acetate]	9.98	3.12	effectively reduce apoptosis		98.1	0.650 ± 0.010	4.46 ± 0.11	
C1=Cc2nc1cc1ccc([n-]1)c(C1CCOCC1)c1nc(cc3ccc([n-]3)c2C2CCOCC2)C=C1.[Cl-].[Mn+3] [EUK-451, {[{(Porphine-5,15-diyl)bis[4-Tetrahydropyrano-diyl]}](2-)-N^21,N^22,N^23,N^24} manganese(III) chloride]	29.1	2.39	effectively reduce apoptosis		100	−0.660 ± 0.011	0.219 ± 0.005	relative activity against STS-induced apoptosis (PC12 cells; [13]): highest activity; relative toxicity in PC12 model (PC12 cells; [13]): lowest toxicity; recovery from plasma [9]: recovered from plasma at low levels
C1=Cc2nc1cc1ccc([n-]1)c(C1CCCCC1)c1nc(cc3ccc([n-]3)c2C2CCCCC2)C=C1.[Cl-].[Mn+3] [EUK-452, {[{(Porphine-5,15-diyl)bis[cyclohexyl-diyl]}](2-)-N^21,N^22,N^23,N^24} manganese(III) chloride]	20.1	9.05	effectively reduce apoptosis		98.2	1.973 ± 0.008	93.97 ± 1.67	concentration providing protection from the apoptotic effects of ionizing radiation ([2]; 20 Gy): 3 µM; lipophilicity ([6]; octanol partitioning): most lipophilic
CCCc1c2nc(cc3ccc([n-]3)c(CCC)c3nc(cc4ccc1[n-]4)C=C3)C=C2.[Cl-].[Mn+3] [EUK-453, {[{(Porphine-5,15-diyl)bis[propyl-diyl]}](2-)-N^21,N^22,N^23,N^24} manganese(III) chloride]	60.9	2.3	effectively reduce apoptosis		98.4	0.619 ± 0.017	4.16 ± 0.16	
